Molecules are shown by their SMILES.

The nature of data set [1]: In vivo release kinetics of rapamycin and mycophenolic acid, porcine pharmacokinetics studies. From the text:
The topcoat is two hundred micro grams.

For data set [2], the system named is human coronary artery smooth muscle cells. Nature of the data set: Anti-proliferative activity in non-synchronized cultured human coronary artery smooth muscle cells stimulated with two percent fetal bovine serum. The class given is cell-based. The conditions noted are these: for effect on the anti-proliferative activity of rapamycin (shift of the rapamycin dose response curve): added to cells treated with rapamycin. From the text: The multiple curves represent various concentrations of mycophenolic acid ranging from zero to one thousand nanomolar concentrations.
FIG. 58 illustrates, in graphical format, the anti-proliferative activity of cladribine in non-synchronized cultured human coronary artery smooth muscle cells stimulated with two percent fetal bovine serum.
The multiple curves represent various concentrations of cladribine ranging from zero to nine hundred nanomolar concentrations.

The test system of data set [3] is human smooth muscle cells. Nature of the data set: Cladribine Example: PDGF-stimulated proliferation, cell count on day six, smooth muscle cells. The conditions noted are these: from the IC50 values. The class given is cell-based. As to the method: To assess the ability of cladribine to prevent cell proliferation, human smooth muscle or endothelial cells (Clonetics, Walkersville, Md.) were seeded at a density of 2000 cells/cm^2 (approximately 3600 cells/well) into each well of 12-well plates and cultured with 1.5 ml of growth medium containing five percent fetal calf serum (FCS). After twenty-four hours, the growth medium was changed and fresh medium containing 10 ng/ml platelet-derived growth factor AB (PDGF AB; LIFE Technologies), as well as various concentrations of cladribine (0.001-10,000 nM) were added with triplicate wells. Medium was replaced with fresh cladribine-containing medium after three days. On day six, cells were detached by trypsinization to yield a cell suspension, lightly centrifuged to pellet and then counted manually using a Neubauer hemocytometer system. Cell viability was assessed by trypan blue exclusion.

The nature of data set [4]: In vivo release kinetics of rapamycin and cladribine, porcine pharmacokinetics studies. The conditions noted are these: Bx Velocity stents, FIG. 63 compared to FIG. 62. Also noted: species or system Yorkshire pigs.
Description: (§1) The basecoat is applied to Bx Velocity® stents and implanted into Yorkshire pigs.
as §1

Data set [5] relates to human coronary artery smooth muscle cell proliferation. Nature of the data set: In vitro cell culture study of coronary artery smooth muscle cell proliferation. In kind it is cell-based. An excerpt:
FIG. 51 is a graph of the inhibition of coronary artery smooth muscle cells by trichostatin A in a cell culture study.

In data set [6] the test system is tumor cell lines. The conditions noted are these: cited from earlier work.

Regarding `CO[C@H]1C[C@@H]2CC[C@@H](C)[C@@](O)(O2)C(=O)C(=O)N2CCCC[C@H]2C(=O)O[C@H]([C@H](C)C[C@@H]2CC[C@@H](O)[C@H](OC)C2)CC(=O)[C@H](C)/C=C(\C)[C@@H](O)[C@@H](OC)C(=O)[C@H](C)C[C@H](C)/C=C/C=C/C=C/1C` [Rapamycin, rapamycin], the “in vivo release rate from PVDF basecoat with PVDF topcoat” value in data set [1] (six hundred micro grams basecoat, two hundred micro grams topcoat) is listed as “slower release rate than that of mycophenolic acid”.
As for `Nc1nc(Cl)nc2c1ncn2[C@H]1C[C@H](O)[C@@H](CO)O1` [cladribine, 2-chlorodeoxyadenosine], the “inhibition of human coronary artery smooth muscle cell proliferation” value in data set [2] (FIG. 58) is “completely inhibits”. The “effect on the anti-proliferative activity of rapamycin (shift of the rapamycin dose response curve)” value in data set [2] is given as “potentiate”. Also, the “potency as inhibitor of smooth muscle cells relative to endothelial cells” value in data set [3] is “approximately twice”. In data set [4], the “in vivo elution from EVA/BMA basecoat with BMA topcoat” value is “elutes more rapidly than rapamycin”.
As to `COc1c(C)c2c(c(O)c1C/C=C(\C)CCC(=O)O)C(=O)OC2` [mycophenolic acid], the “effect on the anti-proliferative activity of rapamycin (shift of the rapamycin dose response curve)” value in data set [2] is given as “potentiates”. In addition, the “in vivo release from EVA/BMA basecoat (with or without BMA topcoat)” value in data set [1] (180 micro grams rapamycin, 180 micro grams mycophenolic acid, 240 micro grams EVA/BMA) is recorded as “elutes more completely over a shorter duration than the rapamycin”.
Usually IC50 stands for the point on the concentration scale where inhibition reaches its midpoint. On to `CC(/C=C/C(=O)NO)=C\[C@@H](C)C(=O)c1ccc(N(C)C)cc1` [trichostatin A], for which, in data set [5], the “inhibition of human coronary artery smooth muscle cell proliferation” value was “completely inhibit”. Moreover, in data set [5] (read-out: anti-proliferative IC50), the IC50 was approximately 6 nM. For the same compound, the “anti-proliferative IC50's” value in data set [6] is listed as “low nM range”.

These data come from US7806924B2 (Cordis Corporation, priority 2004, dated 2010).
